Measured values as given in US20200163897A1, “METHODS OF TREATING LIVER DISEASES ASSOCIATED WITH PORTAL TRACT OR PERIPORTAL INFLAMMATION” (The Regents of the University of California, priority 2017, published 2020).

What was measured:
[1] = tested on: obese children who had steatosis; settings: after vitamin E 400-1000 IU/day for 4-10 months, cited from earlier work
tissue transglutaminase = molecular target: T1, tissue transglutaminase (Rattus norvegicus, UniProt Q9WVJ6); settings: via inhibition of tissue transglutaminase; cited from earlier work
T1 construct: host or cells: liver of CCl4-treated animals (in vivo)
T1 sequence (Q9WVJ6 1-686): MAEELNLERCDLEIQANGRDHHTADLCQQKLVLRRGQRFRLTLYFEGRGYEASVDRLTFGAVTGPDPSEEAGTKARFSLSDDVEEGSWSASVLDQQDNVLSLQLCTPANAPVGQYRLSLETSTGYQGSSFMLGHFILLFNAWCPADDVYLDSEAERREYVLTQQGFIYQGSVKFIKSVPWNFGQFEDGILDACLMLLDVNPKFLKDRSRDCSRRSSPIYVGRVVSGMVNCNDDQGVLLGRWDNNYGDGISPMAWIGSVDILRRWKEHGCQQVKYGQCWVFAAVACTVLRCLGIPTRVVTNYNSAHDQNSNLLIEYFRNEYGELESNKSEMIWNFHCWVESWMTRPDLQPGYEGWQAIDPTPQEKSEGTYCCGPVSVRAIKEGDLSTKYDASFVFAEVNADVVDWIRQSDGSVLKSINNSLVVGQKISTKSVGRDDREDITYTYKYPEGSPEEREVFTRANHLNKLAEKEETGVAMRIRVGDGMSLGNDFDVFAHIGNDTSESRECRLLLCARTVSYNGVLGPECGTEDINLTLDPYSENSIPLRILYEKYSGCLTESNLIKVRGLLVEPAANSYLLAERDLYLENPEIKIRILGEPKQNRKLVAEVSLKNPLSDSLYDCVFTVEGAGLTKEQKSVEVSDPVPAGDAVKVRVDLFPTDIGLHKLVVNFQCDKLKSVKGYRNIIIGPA

leukocyte cystine = settings: delivery to the small intestine; cited from earlier work
in vivo = assay: in vivo; set-up: species or system rats; settings: rat, 20 mg/kg
Text: Samples were taken from the portal vein (PV) and jugular vena cava (JVC) in rats that were either pre-treated with or naïve to cysteamine therapy.
The portal vein delivers blood, and therefore drug, directly to the liver where it diffuses into the periportal region. The concentration of drug in the periportal region is therefore at a maximum level and is higher than the drug concentration in the hepatic lobular region (which drains into the hepatic central veins and then into the JVC). This is possible because as blood, and therefore drug, traverses through the hepatic lobule away from the portal vein its contents will undergo some degree of first-pass metabolism. It is postulated here, that patients with type 2 pediatric NASH, receiving a greater drug exposure at the site of maximal disease (i.e., periportal region; recall Type 2 NASH is characterized by portal inflammation), are more likely to respond to drug therapy than children with type 1 NASH.

children with NASH = settings: cited from earlier work
[2] = tested on: acetaminophen-induced hepatocellular injury; settings: mice and humans; cited from earlier work
[3] = tested on: obese individuals with NASH; settings: 4-12 weeks, no reported change in body mass index; cited from earlier work

Q: With vitamin E as the compound, how does the “mean AST levels” value ([1]; decreased from 104±61 IU/L, P<0.002) read?
A: 33±11 IU/L

Q: And the “mean ALT levels” value ([1]; decreased from 175±106 IU/L, P<0.01)?
A: 40±26 IU/L

Q: Which “liver fibrosis induced by carbon tetrachloride” value (tissue transglutaminase) does the source give for `NCCSSCCN` [Cystamine] here?
A: ameliorate liver fibrosis

Q: What does the source list for `NCCS` [cysteamine]?
A: decrease in leukocyte cystine, time after treatment (leukocyte cystine): within an hour; Tmax (in vivo): 5 to 10 min; blood liver inflammation markers (ALT, AST, GGT) (children with NASH; children with NASH, 6 and 12 months treatment): statistically significant improvement; primary endpoint of improved histology (children with NASH; placebo controlled 12 month study group): not achieved; chance of histological improvement compared with the placebo group (children with NASH; post-hoc analysis, children <65 kg body weight, placebo controlled 12 month study): 4 fold; prevention of acetaminophen-induced hepatocellular injury [2]: effective

Q: With `CC(=O)N[C@@H](CS)C(=O)O` [N-acetylcysteine] as the compound, how does the “aminotransferase levels and gamma-GT” value [3] read?
A: improvement
